Experimental data as given in paper PMC7972453, “The allosteric modulation of complement C5 by knob domain peptides” (eLife, 2021).
Like-named read-outs stand apart in the source and are kept apart here. Bridges are numbered along the chain shown (N, C = ends). Where no end group is shown, it is not given here.

Molecular target: T1, human C5 (Homo sapiens, UniProt P01031)
T1 construct: tissue TCS Biosciences (serum); host or cells: human serum
Assay: SPR multi-cycle kinetics, binding to C5
Details: for fold drop in affinity of alanine mutant: relative to unmodified K8 or K92, SPR multi-cycle kinetics, n = 3
Description: Kinetics were measured using a Biacore 8K (GE Healthcare, Amersham, UK) with a CM5 chip, which was prepared as follows: 1-ethyl-3-(−3-dimethylaminopropyl) carbodiimide hydrochloride (EDC)/N-hydroxysuccinimide (NHS) was mixed at 1:1 ratio (flow rate, 10 µL/min; contact time, 30 s), and human C5 at 1 µg/mL in pH 4.5 sodium acetate buffer was injected over flow cell one only (flow rate, 10 µL/min; contact time, 60 s). Final immobilisation levels in the range of 2000–3000 RUs were obtained to yield theoretical Rmax values of ~50–60 RU. […] After each injection, the surface was regenerated with two sequential injections of 2 M MgCl2 (flow rate, 30 µL/min; contact time, 30 s). Binding to the reference surface was subtracted, and the data were fitted to a single-site binding model using Biacore evaluation software.
Table 2.6. Validation of molecular interactions by peptide mutagenesis analysis.
Summary of SPR multi-cycle kinetics

[1] = pH 7.4, read-out: mean koff, Biacore 8K, HBS-EP pH 7.4, mean of n=3
[2] = pH 7.4, read-out: mean kon, Biacore 8K, CM5 chip, HBS-EP pH 7.4, mean of n=3
[3] = Biacore 8K, HBS-EP pH 7.4, single-site model, mean of n=3, read-out: mean KD

Kd [3]	Kd (replicate n=1, read-out: KD)	Kd (replicate n=2, read-out: KD)	Kd (replicate n=3, read-out: KD)	Substance	mean stoich. ratio (Biacore 8K, mean of n=3)	koff [1]	kon [2]	fold drop in affinity of alanine mutant	koff (replicate n=1)	kon (replicate n=1)	stoich. ratio (replicate n=1)	koff (replicate n=2)	kon (replicate n=2)	stoich. ratio (replicate n=2)	koff (replicate n=3)	kon (replicate n=3)	stoich. ratio (replicate n=3)
				SVCPDGFDWGYGCAAGSSRFCTAHDWCCYDERADSHTYGFCTGNRVENLYFQ (disulfide 3-28, 13-21, 27-41 (inferred)) [K8 R22A]	0.27	0.000599 s⁻¹	54000 M⁻¹ s⁻¹	twofold decrease in affinity	0.000565 s⁻¹	59200 M⁻¹ s⁻¹	0.29	0.000672 s⁻¹	53500 M⁻¹ s⁻¹	0.24	0.000561 s⁻¹	49400 M⁻¹ s⁻¹	0.27
0.497 µM	0.437 µM	0.411 µM	0.644 µM	K92 W21A: alanine mutant of K92 (CPEGWSECGVAIYGYACGRAGCGHFLNSGPNISP)													
0.0188 µM	0.0149 µM	0.0215 µM	0.0199 µM	K92 F26A: alanine mutant of K92 (CPEGWSECGVAIYGYACGRWGCGHALNSGPNISP)													
				SVCPDGFDWGYGCAAGSSRFCTRHDWCCYDEAADSHTYGFCTGNRVENLYFQ (disulfide 3-28, 13-21, 27-41 (inferred)) [K8 R31A]	0.75	0.00152 s⁻¹	462 M⁻¹ s⁻¹	715 -fold	0.00182 s⁻¹	786 M⁻¹ s⁻¹	0.36	0.00125 s⁻¹	336 M⁻¹ s⁻¹	0.71	0.00149 s⁻¹	263 M⁻¹ s⁻¹	1.18
